2 molecules from publication PMC11672137, “High-Affinity Lectin Ligands Enable the Detection of Pathogenic Pseudomonas aeruginosa Biofilms: Implications for Diagnostics and Therapy” (JACS Au, 2024) can be followed below.

Assay [1] concerns the target T1, LecA (Pseudomonas aeruginosa, UniProt Q05097).
T1 construct: made in house
As to the kind of experiment: Direct binding assay based on fluorescence polarization, titration with LecA. As to conditions: read-out: Kd (direct binding, fluorescence polarization); LecA titrated to fluorescent probe, TBS/Ca2+ buffer. (Polarisation of emitted light reports the rotation of a fluorescent probe.)
Description: The binding affinities of imaging probes 2–4 for LecA were determined using a direct binding assay based on fluorescence polarization (FP).[47]
(A, C) Monovalent LecA imaging probes 2–4 based on phenyl β-D-galactoside (1) were titrated with LecA. […] (E) Xyloside-fluorescein conjugate (8) and azido fluorescein (9) served as negative controls in titrations with LecA and LecB, respectively. Averages and standard deviations were determined from at least three independent titrations of technical triplicates each.
Direct binding affinity determination of LecA and LecB imaging probes was performed with direct titration of protein and imaging probes in TBS/Ca2+ buffer. Protein dilution series was prepared in 96 well plates and 10 µL of each dilution in triplicates were mixed with 10 µL of fluorescent compound (20 nM) in 384-well microtiter plates (Greiner Bio-One, Germany, cat no 781900). The plates were centrifuged (1 min, 500 g), sealed and incubated for 2 h in dark wet chamber under gentle shaking. Fluorescence was measured on a PheraStar FS plate reader (BMG Labtech GmbH, Germany) with excitation filters at 485 nm and emission filters at 535 nm. The data were analysed with MARS Data Analysis Software (BMG Labtech GmbH, Germany) to calculate Kd values.

In assay [2] the target is T1, LecA. As to the kind of experiment: Competitive binding assay based on fluorescence polarization, LecA. As for the experimental part: Next, binding of the optimized divalent ligand 17 and its synthetic precursor 16 to LecA was evaluated by fluorescence polarization-based (FP) assays,[47] SPR, and ITC. […] Therefore, fluorescent ligand 17 was analyzed in a direct binding experiment by FP. […] The dissociation constants for 16 were 47.2 ± 11.3 nM (ITC) and 47.8 ± 44.1 nM (steady-state SPR), while for 17, the values were 64.1 ± 31.1 nM and 79.3 ± 24.9 nM (steady-state SPR). For the SPR experiments, Kd was also determined by single-cycle kinetic analysis resulting in approximately five times higher affinity, but the data have limited reliability due to suboptimal fit for the kinetic curves (Figures S13B and S14).[58]−[60] […]
137 mM NaCl, 2.6 mM KCl at pH 7.4 supplemented with 1 mM CaCl2). Protein concentration was determined by UV spectroscopy at 280 nm using a molar extinction coefficient of 27 960 M-1 cm-1 for LecA and 6 990 M-1 cm-1 for LecB.
All synthesized alkyne precursors (S5m, S5p, S6m, S6p, S11, 25, S16, S22 and S24) were analysed in the previously established competitive binding assays based on fluorescence polarization (Figure S2).18,19 Galactose-based compounds (S5m, S5p, S6m, S6p, S11) were evaluated against LecA and C-glycoside-based compounds […] and S16 against LecB. […]
PheraStar FS plate reader (BMG Labtech GmbH, Germany) with excitation filters at 485 nm and emission filters at 535 nm. […]

T1 sequence (Q05097 whole entry): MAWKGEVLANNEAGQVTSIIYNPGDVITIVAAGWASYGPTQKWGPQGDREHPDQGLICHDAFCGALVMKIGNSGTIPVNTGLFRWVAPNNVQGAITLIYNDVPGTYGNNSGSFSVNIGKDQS

One may read the Kd as a measure of binding affinity in units of concentration. For `O=C(CCc1ccc(O[C@@H]2O[C@H](CO)[C@H](O)[C@H](O)[C@H]2O)cc1)Nc1ccc(CN(CCc2cn(CCOCCOCCOCCNC(=S)Nc3ccc4c(c3)C(=O)OC43c4ccc(O)cc4Oc4cc(O)ccc43)nn2)Cc2ccc(NC(=O)CCc3ccc(O[C@@H]4O[C@H](CO)[C@H](O)[C@H](O)[C@H]4O)cc3)cc2)cc1` [compound 17], on LecA [1], the Kd turned out to be 1.05 ± 0.12 µM.

As usually defined, the IC50 is the concentration that gives 50% inhibition. On to `C#CCCN(Cc1ccc(NC(=O)CCc2ccc(O[C@@H]3O[C@H](CO)[C@H](O)[C@H](O)[C@H]3O)cc2)cc1)Cc1ccc(NC(=O)CCc2ccc(O[C@@H]3O[C@H](CO)[C@H](O)[C@H](O)[C@H]3O)cc2)cc1` [compound 16], for which the IC50 at LecA [2] is 5.6 ± 2.2 µM.
